# ChEMBL document CHEMBL1909046, “DrugMatrix in vitro pharmacology data”
# Test system: not listed separately
# Assay: DRUGMATRIX: Calcium Channel Type L, Benzothiazepine radioligand binding (ligand: [3H] Diltiazem)
# Type: cell membranes, Rattus norvegicus, Wistar, Brain, Membrane
# Settings: Not Active = under 50% inhibition at 10 µM
SMILES,IC50,Ki
COc1ccc2c(c1)c(CC(=O)OCC(=O)O)c(C)n2C(=O)c1ccc(Cl)cc1 [ACEMETACIN],Not Active,Not Active
CC1(C)S[C@@H]2[C@H](NC(=O)[C@H](NC(=O)N3CCNC3=O)c3ccccc3)C(=O)N2[C@H]1C(=O)O [AZLOCILLIN],Not Active,Not Active
CCOC(=O)OC(C)OC1=C(C(=O)Nc2ccccn2)N(C)S(=O)(=O)c2ccccc21 (stereo unspecified) [AMPIROXICAM],Not Active,Not Active

# Molecular target: T1, Adenosine receptor A3 (Homo sapiens, UniProt P0DMS8);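 also: radioligand binding assay with AB-MECA serving as the labeled ligand; in other assays of this panel Not Active means under 50% inhibition at 10 µM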
# T1 sequence (P0DMS8 whole entry): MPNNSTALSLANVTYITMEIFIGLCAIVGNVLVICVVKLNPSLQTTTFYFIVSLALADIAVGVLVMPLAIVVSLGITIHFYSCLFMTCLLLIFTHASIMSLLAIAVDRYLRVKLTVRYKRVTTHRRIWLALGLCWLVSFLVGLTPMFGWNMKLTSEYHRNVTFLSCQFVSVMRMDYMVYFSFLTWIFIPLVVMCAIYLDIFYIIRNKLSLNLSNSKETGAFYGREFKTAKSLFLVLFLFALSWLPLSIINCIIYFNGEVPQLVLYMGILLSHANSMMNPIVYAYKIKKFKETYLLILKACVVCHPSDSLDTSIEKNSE
# Assay: not given
# Type: cell membranes, CHO-K1, Membrane
# Settings: cho-k1
row,SMILES,IC50
1,COc1ccc2c(c1)c(CC(=O)OCC(=O)O)c(C)n2C(=O)c1ccc(Cl)cc1 [ACEMETACIN],Not Active
2,CC1(C)S[C@@H]2[C@H](NC(=O)[C@H](NC(=O)N3CCNC3=O)c3ccccc3)C(=O)N2[C@H]1C(=O)O [AZLOCILLIN],Not Active
3,CCOC(=O)OC(C)OC1=C(C(=O)Nc2ccccn2)N(C)S(=O)(=O)c2ccccc21 (stereo unspecified) [AMPIROXICAM],Not Active

# Molecular target: T2, C-X-C chemokine receptor type 2 (Homo sapiens, UniProt P25025); also: in other assays of this panel Not Active means under 50% inhibition at 10 µM
# T2 sequence (P25025 whole entry): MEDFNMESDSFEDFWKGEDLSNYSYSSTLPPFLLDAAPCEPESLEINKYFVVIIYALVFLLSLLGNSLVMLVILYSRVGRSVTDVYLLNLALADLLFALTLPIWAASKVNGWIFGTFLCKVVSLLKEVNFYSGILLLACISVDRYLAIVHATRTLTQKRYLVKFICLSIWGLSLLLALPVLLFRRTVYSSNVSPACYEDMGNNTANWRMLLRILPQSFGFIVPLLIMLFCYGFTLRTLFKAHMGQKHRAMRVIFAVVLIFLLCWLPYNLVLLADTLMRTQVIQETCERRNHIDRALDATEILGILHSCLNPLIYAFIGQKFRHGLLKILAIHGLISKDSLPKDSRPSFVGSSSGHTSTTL
# Assay: not given
# Type: cell membranes, Membrane
# Settings: cho-k1
row,SMILES,IC50
1,COc1ccc2c(c1)c(CC(=O)OCC(=O)O)c(C)n2C(=O)c1ccc(Cl)cc1 [ACEMETACIN],Not Active
2,CC1(C)S[C@@H]2[C@H](NC(=O)[C@H](NC(=O)N3CCNC3=O)c3ccccc3)C(=O)N2[C@H]1C(=O)O [AZLOCILLIN],Not Active
3,CCOC(=O)OC(C)OC1=C(C(=O)Nc2ccccn2)N(C)S(=O)(=O)c2ccccc21 (stereo unspecified) [AMPIROXICAM],Not Active

# Molecular target: Cytochrome P450 2E1 (Homo sapiens, UniProt P05181); also: in other assays of this panel Not Active means under 50% inhibition at 10 µM
# Assay: not given
# Settings: bti-tn-5b1-4
# Chain of Cytochrome P450 2E1 (P05181 whole entry): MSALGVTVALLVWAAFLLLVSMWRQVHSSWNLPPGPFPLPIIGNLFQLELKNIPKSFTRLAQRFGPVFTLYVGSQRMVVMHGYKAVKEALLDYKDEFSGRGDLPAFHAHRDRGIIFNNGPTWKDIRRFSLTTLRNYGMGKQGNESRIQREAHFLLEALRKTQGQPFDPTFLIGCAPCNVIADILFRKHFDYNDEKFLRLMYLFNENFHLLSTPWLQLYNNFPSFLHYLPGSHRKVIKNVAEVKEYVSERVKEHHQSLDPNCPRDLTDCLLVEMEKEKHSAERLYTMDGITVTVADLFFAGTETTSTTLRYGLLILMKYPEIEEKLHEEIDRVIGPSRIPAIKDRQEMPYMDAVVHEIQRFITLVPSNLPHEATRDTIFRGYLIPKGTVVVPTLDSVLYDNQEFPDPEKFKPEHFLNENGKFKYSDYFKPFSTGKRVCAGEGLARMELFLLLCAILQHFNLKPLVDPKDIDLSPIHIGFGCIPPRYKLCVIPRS
SMILES,IC50,Ki
COc1ccc2c(c1)c(CC(=O)OCC(=O)O)c(C)n2C(=O)c1ccc(Cl)cc1 [ACEMETACIN],Not Active,Not Active
CC1(C)S[C@@H]2[C@H](NC(=O)[C@H](NC(=O)N3CCNC3=O)c3ccccc3)C(=O)N2[C@H]1C(=O)O [AZLOCILLIN],Not Active,Not Active
CCOC(=O)OC(C)OC1=C(C(=O)Nc2ccccn2)N(C)S(=O)(=O)c2ccccc21 (stereo unspecified) [AMPIROXICAM],Not Active,Not Active

# Test system: not listed separately
# Assay: DRUGMATRIX: GABAA, Chloride Channel, TBOB radioligand binding (ligand: [3H] TBOB)
# Type: cell membranes, Rattus norvegicus, Wistar, Cerebral cortex, Membrane
# Settings: Not Active = under 50% inhibition at 10 µM
SMILES,IC50,Ki
COc1ccc2c(c1)c(CC(=O)OCC(=O)O)c(C)n2C(=O)c1ccc(Cl)cc1 [ACEMETACIN],Not Active,Not Active
CC1(C)S[C@@H]2[C@H](NC(=O)[C@H](NC(=O)N3CCNC3=O)c3ccccc3)C(=O)N2[C@H]1C(=O)O [AZLOCILLIN],Not Active,Not Active
CCOC(=O)OC(C)OC1=C(C(=O)Nc2ccccn2)N(C)S(=O)(=O)c2ccccc21 (stereo unspecified) [AMPIROXICAM],Not Active,Not Active

# Molecular target: 5-hydroxytryptamine receptor 6 (Homo sapiens, UniProt P50406); also: in other assays of this panel Not Active means under 50% inhibition at 10 µM
# Assay: not given
# Type: cell membranes, HeLa, Membrane
# Settings: hela
# Chain of 5-hydroxytryptamine receptor 6 (P50406 whole entry): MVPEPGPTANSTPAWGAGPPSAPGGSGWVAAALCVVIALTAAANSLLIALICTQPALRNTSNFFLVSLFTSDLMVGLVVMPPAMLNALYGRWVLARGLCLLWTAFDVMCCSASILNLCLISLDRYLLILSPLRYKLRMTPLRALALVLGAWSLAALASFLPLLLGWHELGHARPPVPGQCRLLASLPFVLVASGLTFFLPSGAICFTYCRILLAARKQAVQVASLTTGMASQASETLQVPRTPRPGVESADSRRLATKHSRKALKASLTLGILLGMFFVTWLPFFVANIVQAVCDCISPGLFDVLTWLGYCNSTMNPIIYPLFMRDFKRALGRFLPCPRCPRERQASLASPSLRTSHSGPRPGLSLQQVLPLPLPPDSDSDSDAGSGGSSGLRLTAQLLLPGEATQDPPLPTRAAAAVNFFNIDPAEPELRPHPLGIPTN
row,SMILES,IC50
1,COc1ccc2c(c1)c(CC(=O)OCC(=O)O)c(C)n2C(=O)c1ccc(Cl)cc1 [ACEMETACIN],Not Active
2,CC1(C)S[C@@H]2[C@H](NC(=O)[C@H](NC(=O)N3CCNC3=O)c3ccccc3)C(=O)N2[C@H]1C(=O)O [AZLOCILLIN],Not Active
3,CCOC(=O)OC(C)OC1=C(C(=O)Nc2ccccn2)N(C)S(=O)(=O)c2ccccc21 (stereo unspecified) [AMPIROXICAM],Not Active

# Molecular target: Cytochrome P450 2D6 (Homo sapiens, UniProt P10635); also: in other assays of this panel Not Active means under 50% inhibition at 10 µM
# Assay: not given
# Settings: bti-tn-5b1-4
# Chain of Cytochrome P450 2D6 (P10635 whole entry): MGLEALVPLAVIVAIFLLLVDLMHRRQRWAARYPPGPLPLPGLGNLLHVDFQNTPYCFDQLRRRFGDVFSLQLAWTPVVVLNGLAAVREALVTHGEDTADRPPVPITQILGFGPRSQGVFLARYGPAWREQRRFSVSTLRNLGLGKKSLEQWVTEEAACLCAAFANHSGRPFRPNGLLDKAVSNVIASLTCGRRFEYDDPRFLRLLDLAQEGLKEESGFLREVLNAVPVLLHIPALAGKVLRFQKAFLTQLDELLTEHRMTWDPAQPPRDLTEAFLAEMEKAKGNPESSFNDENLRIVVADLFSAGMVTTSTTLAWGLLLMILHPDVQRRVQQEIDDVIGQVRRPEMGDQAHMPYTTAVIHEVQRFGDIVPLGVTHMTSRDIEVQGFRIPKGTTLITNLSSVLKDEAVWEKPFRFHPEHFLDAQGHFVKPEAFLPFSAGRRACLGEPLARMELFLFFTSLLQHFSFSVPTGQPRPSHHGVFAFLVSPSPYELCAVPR
SMILES,IC50,Ki
COc1ccc2c(c1)c(CC(=O)OCC(=O)O)c(C)n2C(=O)c1ccc(Cl)cc1 [ACEMETACIN],Not Active,Not Active
CC1(C)S[C@@H]2[C@H](NC(=O)[C@H](NC(=O)N3CCNC3=O)c3ccccc3)C(=O)N2[C@H]1C(=O)O [AZLOCILLIN],Not Active,Not Active
CCOC(=O)OC(C)OC1=C(C(=O)Nc2ccccn2)N(C)S(=O)(=O)c2ccccc21 (stereo unspecified) [AMPIROXICAM],Not Active,Not Active

# Molecular target: T3, Alpha-1B adrenergic receptor (Rattus norvegicus, UniProt P15823)
# T3 sequence (P15823 whole entry): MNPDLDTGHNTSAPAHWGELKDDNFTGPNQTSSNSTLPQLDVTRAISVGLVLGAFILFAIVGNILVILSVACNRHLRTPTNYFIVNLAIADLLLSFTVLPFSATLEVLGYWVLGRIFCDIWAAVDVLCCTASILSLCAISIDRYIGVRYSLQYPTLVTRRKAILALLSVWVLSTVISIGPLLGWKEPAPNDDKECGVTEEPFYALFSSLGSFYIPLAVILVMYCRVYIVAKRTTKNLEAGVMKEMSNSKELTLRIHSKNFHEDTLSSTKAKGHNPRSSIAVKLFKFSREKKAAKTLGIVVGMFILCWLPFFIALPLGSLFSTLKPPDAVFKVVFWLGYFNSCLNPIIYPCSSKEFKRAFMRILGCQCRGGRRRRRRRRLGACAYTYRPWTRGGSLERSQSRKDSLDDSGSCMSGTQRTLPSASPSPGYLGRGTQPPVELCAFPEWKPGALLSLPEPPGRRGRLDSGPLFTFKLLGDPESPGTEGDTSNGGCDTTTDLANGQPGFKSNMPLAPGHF
# Assay: DRUGMATRIX: Alpha-1B adrenergic receptor radioligand binding (ligand: prazosin)
# Type: cell membranes, Wistar, Liver, Membrane
# Settings: Not Active = under 50% inhibition at 10 µM
row,SMILES,IC50
1,COc1ccc2c(c1)c(CC(=O)OCC(=O)O)c(C)n2C(=O)c1ccc(Cl)cc1 [ACEMETACIN],Not Active
2,CC1(C)S[C@@H]2[C@H](NC(=O)[C@H](NC(=O)N3CCNC3=O)c3ccccc3)C(=O)N2[C@H]1C(=O)O [AZLOCILLIN],Not Active
3,CCOC(=O)OC(C)OC1=C(C(=O)Nc2ccccn2)N(C)S(=O)(=O)c2ccccc21 (stereo unspecified) [AMPIROXICAM],Not Active

# Molecular target: D(1A) dopamine receptor (Homo sapiens, UniProt P21728)
# Assay: DRUGMATRIX: Dopamine D1 radioligand binding (ligand: [3H] SCH-23390)
# Type: cell membranes, CHO, Membrane
# Settings: cho; Not Active = under 50% inhibition at 10 µM
# Chain of D(1A) dopamine receptor (P21728 whole entry): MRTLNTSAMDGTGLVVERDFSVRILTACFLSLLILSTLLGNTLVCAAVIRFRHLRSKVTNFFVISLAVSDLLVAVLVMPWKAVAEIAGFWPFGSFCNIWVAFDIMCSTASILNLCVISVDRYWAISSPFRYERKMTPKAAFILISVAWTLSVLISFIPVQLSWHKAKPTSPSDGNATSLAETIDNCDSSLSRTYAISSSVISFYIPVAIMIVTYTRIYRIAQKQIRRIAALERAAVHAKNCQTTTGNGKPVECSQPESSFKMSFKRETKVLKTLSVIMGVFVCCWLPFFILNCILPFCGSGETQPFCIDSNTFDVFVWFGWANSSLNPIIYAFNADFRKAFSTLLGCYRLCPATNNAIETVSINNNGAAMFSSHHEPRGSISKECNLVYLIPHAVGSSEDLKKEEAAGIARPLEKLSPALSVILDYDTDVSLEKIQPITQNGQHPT
row,SMILES,IC50
1,COc1ccc2c(c1)c(CC(=O)OCC(=O)O)c(C)n2C(=O)c1ccc(Cl)cc1 [ACEMETACIN],Not Active
2,CC1(C)S[C@@H]2[C@H](NC(=O)[C@H](NC(=O)N3CCNC3=O)c3ccccc3)C(=O)N2[C@H]1C(=O)O [AZLOCILLIN],Not Active
3,CCOC(=O)OC(C)OC1=C(C(=O)Nc2ccccn2)N(C)S(=O)(=O)c2ccccc21 (stereo unspecified) [AMPIROXICAM],Not Active

# Molecular target: 5-hydroxytryptamine receptor 2B (Homo sapiens, UniProt P41595); also: in other assays of this panel Not Active means under 50% inhibition at 10 µM
# Assay: not given
# Type: cell membranes, CHO-K1, Membrane
# Settings: cho-k1
# Chain of 5-hydroxytryptamine receptor 2B (P41595 whole entry): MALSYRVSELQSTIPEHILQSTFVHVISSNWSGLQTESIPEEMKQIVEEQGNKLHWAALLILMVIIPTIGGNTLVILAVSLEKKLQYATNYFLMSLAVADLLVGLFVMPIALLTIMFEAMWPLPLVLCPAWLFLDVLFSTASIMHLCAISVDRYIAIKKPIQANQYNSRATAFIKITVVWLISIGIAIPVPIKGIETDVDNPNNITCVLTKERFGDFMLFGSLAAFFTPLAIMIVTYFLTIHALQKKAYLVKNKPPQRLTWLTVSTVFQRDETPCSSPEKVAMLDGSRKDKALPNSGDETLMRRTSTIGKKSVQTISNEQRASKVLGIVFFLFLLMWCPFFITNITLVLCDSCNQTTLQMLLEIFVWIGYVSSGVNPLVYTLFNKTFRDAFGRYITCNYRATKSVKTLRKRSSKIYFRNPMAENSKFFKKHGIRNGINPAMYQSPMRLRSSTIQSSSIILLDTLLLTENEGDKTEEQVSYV
row,SMILES,IC50
1,COc1ccc2c(c1)c(CC(=O)OCC(=O)O)c(C)n2C(=O)c1ccc(Cl)cc1 [ACEMETACIN],Not Active
2,CC1(C)S[C@@H]2[C@H](NC(=O)[C@H](NC(=O)N3CCNC3=O)c3ccccc3)C(=O)N2[C@H]1C(=O)O [AZLOCILLIN],Not Active
3,CCOC(=O)OC(C)OC1=C(C(=O)Nc2ccccn2)N(C)S(=O)(=O)c2ccccc21 (stereo unspecified) [AMPIROXICAM],Not Active

# Molecular target: Beta-3 adrenergic receptor (Homo sapiens, UniProt P13945)
# Assay: DRUGMATRIX: Adrenergic beta3 radioligand binding (ligand: [125I] Cyanopindolol)
# Type: cell membranes, HEK293, Membrane
# Settings: hek293; Not Active = under 50% inhibition at 10 µM
# Chain of Beta-3 adrenergic receptor (P13945 whole entry): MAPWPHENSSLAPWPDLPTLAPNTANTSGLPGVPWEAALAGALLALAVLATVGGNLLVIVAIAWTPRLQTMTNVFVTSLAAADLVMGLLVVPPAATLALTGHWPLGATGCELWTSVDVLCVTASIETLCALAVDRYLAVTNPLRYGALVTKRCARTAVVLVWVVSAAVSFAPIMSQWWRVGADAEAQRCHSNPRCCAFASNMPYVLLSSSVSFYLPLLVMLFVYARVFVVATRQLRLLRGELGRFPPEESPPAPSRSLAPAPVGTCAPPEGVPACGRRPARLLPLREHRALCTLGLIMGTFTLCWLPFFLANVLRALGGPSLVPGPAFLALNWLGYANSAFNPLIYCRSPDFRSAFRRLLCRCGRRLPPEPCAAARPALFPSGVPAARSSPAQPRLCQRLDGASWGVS
row,SMILES,IC50
1,COc1ccc2c(c1)c(CC(=O)OCC(=O)O)c(C)n2C(=O)c1ccc(Cl)cc1 [ACEMETACIN],Not Active
2,CC1(C)S[C@@H]2[C@H](NC(=O)[C@H](NC(=O)N3CCNC3=O)c3ccccc3)C(=O)N2[C@H]1C(=O)O [AZLOCILLIN],Not Active
3,CCOC(=O)OC(C)OC1=C(C(=O)Nc2ccccn2)N(C)S(=O)(=O)c2ccccc21 (stereo unspecified) [AMPIROXICAM],Not Active

# Molecular target: T4, Polyunsaturated fatty acid lipoxygenase ALOX15 (Oryctolagus cuniculus, UniProt P12530)
# T4 sequence (P12530 whole entry): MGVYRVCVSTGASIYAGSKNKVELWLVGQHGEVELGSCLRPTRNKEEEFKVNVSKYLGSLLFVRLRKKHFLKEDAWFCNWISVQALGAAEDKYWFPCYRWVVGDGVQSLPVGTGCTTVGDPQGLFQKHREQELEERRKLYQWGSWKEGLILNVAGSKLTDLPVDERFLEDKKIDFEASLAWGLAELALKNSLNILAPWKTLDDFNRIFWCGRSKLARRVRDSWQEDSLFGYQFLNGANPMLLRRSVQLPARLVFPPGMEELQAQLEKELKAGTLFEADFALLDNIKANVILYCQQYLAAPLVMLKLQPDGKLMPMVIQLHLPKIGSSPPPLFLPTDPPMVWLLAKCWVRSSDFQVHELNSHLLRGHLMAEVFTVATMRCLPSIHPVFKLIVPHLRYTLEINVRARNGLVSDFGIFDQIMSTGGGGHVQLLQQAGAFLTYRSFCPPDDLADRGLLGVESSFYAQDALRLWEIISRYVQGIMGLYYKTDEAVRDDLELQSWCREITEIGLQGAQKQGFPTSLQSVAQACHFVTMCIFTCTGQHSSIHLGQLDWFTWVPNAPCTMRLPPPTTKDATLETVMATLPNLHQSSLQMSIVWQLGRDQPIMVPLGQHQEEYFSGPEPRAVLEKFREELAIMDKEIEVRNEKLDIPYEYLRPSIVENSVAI
# Assay: biochemical
# Type: tissue-based, Reticulocytes
# Settings: reticulocytes
row,SMILES,IC50
1,COc1ccc2c(c1)c(CC(=O)OCC(=O)O)c(C)n2C(=O)c1ccc(Cl)cc1 [ACEMETACIN],Not Active
2,CC1(C)S[C@@H]2[C@H](NC(=O)[C@H](NC(=O)N3CCNC3=O)c3ccccc3)C(=O)N2[C@H]1C(=O)O [AZLOCILLIN],Not Active
3,CCOC(=O)OC(C)OC1=C(C(=O)Nc2ccccn2)N(C)S(=O)(=O)c2ccccc21 (stereo unspecified) [AMPIROXICAM],Not Active

# Molecular target: Histamine H2 receptor (Homo sapiens, UniProt P25021); also: in other assays of this panel Not Active means under 50% inhibition at 10 µM
# Assay: not given
# Type: cell membranes, CHO-K1, Membrane
# Settings: cho-k1
# Chain of Histamine H2 receptor (P25021 whole entry): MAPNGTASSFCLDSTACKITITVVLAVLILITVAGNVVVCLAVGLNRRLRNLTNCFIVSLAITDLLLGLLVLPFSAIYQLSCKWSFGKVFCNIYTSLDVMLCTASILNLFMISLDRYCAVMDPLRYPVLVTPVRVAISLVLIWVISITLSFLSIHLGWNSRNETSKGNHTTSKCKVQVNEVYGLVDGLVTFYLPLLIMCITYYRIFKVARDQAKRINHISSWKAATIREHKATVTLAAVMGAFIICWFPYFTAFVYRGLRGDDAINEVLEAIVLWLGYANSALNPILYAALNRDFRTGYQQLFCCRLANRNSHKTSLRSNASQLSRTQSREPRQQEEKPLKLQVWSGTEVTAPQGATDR
row,SMILES,IC50
1,COc1ccc2c(c1)c(CC(=O)OCC(=O)O)c(C)n2C(=O)c1ccc(Cl)cc1 [ACEMETACIN],Not Active
2,CC1(C)S[C@@H]2[C@H](NC(=O)[C@H](NC(=O)N3CCNC3=O)c3ccccc3)C(=O)N2[C@H]1C(=O)O [AZLOCILLIN],Not Active
3,CCOC(=O)OC(C)OC1=C(C(=O)Nc2ccccn2)N(C)S(=O)(=O)c2ccccc21 (stereo unspecified) [AMPIROXICAM],Not Active
